# According to patent US20260231945A1, “NEMATICIDAL COMPOUNDS, THEIR COMPOSITION AND USE THEREOF” (priority 2023, published 2026):
# System: not listed separately
# Assay: Stability studies: storage at room temperature and under accelerated storage condition (ATS), purity estimated by HPLC
# Type: physicochemical
# Conditions: Day 14; 25° C. ± 2° C.; properly packed material
# Source text: The properly packed material was subjected to the conditions mentioned in the table below (Table 5).
row,SMILES,"purity estimated by HPLC, Day 14 Condition 25° C. ± 2° C."
1,"N#Cc1ccc(/C=C/C=N/[C@@H](CCCNC(=N)N)C(=O)O)cc1 [Example 20, (E)-N^2-[(2E)-3-(4-cyanophenyl)prop-2-en-1-ylidene]-L-arginine]",99.50
2,"N=C(N)NCCC[C@H](/N=C/C=C/c1c(O)cccc1F)C(=O)O [Example 3, (E)-N^2-[(2E)-3-(6-fluoro-2-hydroxyphenyl)prop-2-en-1-ylidene]-L-arginine]",98.80

# Same assay, conditions: Day 14; 54° C. ± 2° C. (accelerated storage); properly packed material
row,SMILES,"purity estimated by HPLC, Day 14 Condition 54° C. ± 2° C."
1,"N#Cc1ccc(/C=C/C=N/[C@@H](CCCNC(=N)N)C(=O)O)cc1 [Example 20, (E)-N^2-[(2E)-3-(4-cyanophenyl)prop-2-en-1-ylidene]-L-arginine]",98.90
2,"N=C(N)NCCC[C@H](/N=C/C=C/c1c(O)cccc1F)C(=O)O [Example 3, (E)-N^2-[(2E)-3-(6-fluoro-2-hydroxyphenyl)prop-2-en-1-ylidene]-L-arginine]",98.79

# Same assay, conditions: Day Zero; 25° C. ± 2° C.; properly packed material
row,SMILES,"purity estimated by HPLC, Day Zero Condition 25° C. ± 2° C."
1,"N#Cc1ccc(/C=C/C=N/[C@@H](CCCNC(=N)N)C(=O)O)cc1 [Example 20, (E)-N^2-[(2E)-3-(4-cyanophenyl)prop-2-en-1-ylidene]-L-arginine]",99.55
2,"N=C(N)NCCC[C@H](/N=C/C=C/c1c(O)cccc1F)C(=O)O [Example 3, (E)-N^2-[(2E)-3-(6-fluoro-2-hydroxyphenyl)prop-2-en-1-ylidene]-L-arginine]",99.23

# Same assay, conditions: Day Zero; 54° C. ± 2° C. (accelerated storage); properly packed material
row,SMILES,"purity estimated by HPLC, Day Zero Condition 54° C. ± 2° C."
1,"N#Cc1ccc(/C=C/C=N/[C@@H](CCCNC(=N)N)C(=O)O)cc1 [Example 20, (E)-N^2-[(2E)-3-(4-cyanophenyl)prop-2-en-1-ylidene]-L-arginine]",99.43
2,"N=C(N)NCCC[C@H](/N=C/C=C/c1c(O)cccc1F)C(=O)O [Example 3, (E)-N^2-[(2E)-3-(6-fluoro-2-hydroxyphenyl)prop-2-en-1-ylidene]-L-arginine]",99.10

# System: Root-knot nematodes Meloidogyne spp. juveniles (J2)
# Assay: whole plant or invertebrate
# Type: in vivo
# Conditions: 500 ppm; 70-100 J2 juveniles; 22±2° C., 70±5% RH; dead/inactive counted at 24, 48, 72 and 96 hours (time of rating not stated)
# Description: The compound to be tested (4 mg) was dissolved in 40 μl of DMSO to make 100,000 PPM concentration stock solution. […] The nematode suspension (250 μl) having 70-100 juveniles (J2) of Root-knot nematodes Meloidogyne spp. pipetted out to each cell of 24 well bioassay plate. Sterile water (1 ml) was pipetted out in fresh 2.5 ml Eppendorf micro-centrifuge tubes. The desired concentration (500 ppm) of the compound was prepared by adding stock solution in 2.5 ml Eppendorf micro-centrifuge tubes. For each treatment 4 replications were maintained. The bioassay plates were incubated at 22±2° C. and 70±5% RH in humidity chambers.
row,SMILES,% Mortality Rating
1,COc1c(C=CC=NC(CCCNC(=N)N)C(=O)O)ccc2[nH]cnc12 (stereo not shown) [Example 61],C (0 to 49)
2,N=C(N)NCCCC(N=CC=Cc1coc2ccccc12)C(=O)O (stereo not shown) [Example 64],B (50-69)
3,N=C(N)NCCCC(N=CC=Cc1ccc2cc[nH]c2c1)C(=O)O (stereo not shown) [Example 58],A (70-100)
4,N=C(N)NCCCC(N=CC=Cc1nc2ccccc2o1)C(=O)O (stereo not shown) [Example 65],B (50-69)
5,CCC(C=NC(CCCNC(=N)N)C(=O)O)=Cc1cccs1 (stereo not shown) [Example 47],B (50-69)
6,C=CCc1ccc(C=CC=NC(CCCNC(=N)N)C(=O)O)c(OC)c1 (stereo not shown) [Example 38],B (50-69)
7,N=C(N)NCCCC(N=CC=Cc1ccc[nH]1)C(=O)O (stereo not shown) [Example 54],B (50-69)
8,CCOc1ccc(C=CC=NC(CCCNC(=N)N)C(=O)O)cc1 (stereo not shown) [Example 33],C (0 to 49)
9,N=C(N)NCCCC(N=CC=Cc1nc2ccccc2[nH]1)C(=O)O (stereo not shown) [Example 55],C (0 to 49)
10,N=C(N)NCCCC(N=CC=Cc1ccn[nH]1)C(=O)O (stereo not shown) [Example 50],B (50-69)
11,N=C(N)NCCCC(N=CC=Cc1cnc[nH]1)C(=O)O (stereo not shown) [Example 51],B (50-69)
12,N=C(N)NCCCC(N=CC=Cc1ccc2ccoc2c1)C(=O)O (stereo not shown) [Example 62],B (50-69)
13,N=C(N)NCCCC(N=CC=Cc1ccncc1)C(=O)O (stereo not shown) [Example 42],A (70-100)
14,N=C(N)NCCCC(N=CC=Cc1ncco1)C(=O)O (stereo not shown) [Example 53],C (0 to 49)
15,CC(C=NC(CCCNC(=N)N)C(=O)O)=Cc1ccc(C(F)(F)F)cc1 (stereo not shown) [Example 29],B (50-69)
16,N=C(N)NCCCC(N=CC=Cc1ccc(C(F)(F)F)cc1)C(=O)O (stereo not shown) [Example 28],B (50-69)
17,CCC(C=NC(CCCNC(=N)N)C(=O)O)=Cc1ccccc1OC(F)(F)F (stereo not shown) [Example 31],C (0 to 49)

row,SMILES,% Mortality Rating
1,C=CCc1cccc(C=CC=NC(CCCNC(=N)N)C(=O)O)c1O (stereo not shown) [Example 36],A (70-100)
2,N=C(N)NCCCC(N=CC=Cc1ncc[nH]1)C(=O)O (stereo not shown) [Example 52],B (50-69)
3,N=C(N)NCCCC(N=CC=Cc1ccncn1)C(=O)O (stereo not shown) [Example 43],A (70-100)
4,CCC(C=NC(CCCNC(=N)N)C(=O)O)=Cc1cscn1 (stereo not shown) [Example 48],B (50-69)
5,C=CCc1ccc(C=CC=NC(CCCNC(=N)N)C(=O)O)cc1 (stereo not shown) [Example 34],B (50-69)
6,N=C(N)NCCCC(N=CC=Cc1ccccc1C(F)(F)F)C(=O)O (stereo not shown) [Example 30],B (50-69)
7,N=C(N)NCCCC(N=CC=Cc1ccc2c[nH]cc2c1)C(=O)O (stereo not shown) [Example 59],A (70-100)
8,CC(C=NC(CCCNC(=N)N)C(=O)O)=Cc1cccs1 (stereo not shown) [Example 46],B (50-69)
9,N=C(N)NCCCC(N=CC=Cc1ccc2c[nH]cc2c1Cl)C(=O)O (stereo not shown) [Example 60],B (50-69)
10,N=C(N)NCCCC(N=CC=Cc1ccc2scnc2c1)C(=O)O (stereo not shown) [Example 57],A (70-100)
11,N=C(N)NCCCC(N=CC=Cc1ccccn1)C(=O)O (stereo not shown) [Example 40],A (70-100)
12,N=C(N)NCCCC(N=CC=Cc1cc2ccccc2o1)C(=O)O (stereo not shown) [Example 63],A (70-100)
13,C=CCc1cccc(C=CC=NC(CCCNC(=N)N)C(=O)O)c1OC (stereo not shown) [Example 37],B (50-69)
14,N=C(N)NCCCC(N=CC=Cc1cnccn1)C(=O)O (stereo not shown) [Example 44],B (50-69)
15,N=C(N)NCCCC(N=CC=Cc1cccnn1)C(=O)O (stereo not shown) [Example 45],C (0 to 49)
16,C=CCc1ccc(C=CC=NC(CCCNC(=N)N)C(=O)O)c(O)c1 (stereo not shown) [Example 35],B (50-69)

# Same assay, conditions: Meloidogyne, 70-100 J2 juveniles, 22±2° C., 70±5% RH, dead/inactive counted at 24, 48, 72 and 96 hours (time of rating not stated)
row,SMILES,mortality at 500 ppm
1,"N=C(N)NCCC[C@H](/N=C/C=C/c1ccccc1O)C(=O)O [Example 1, (E)-N^2-[(2E)-3-(2-hydroxyphenyl)prop-2-en-1-ylidene]-L-arginine]",70 to 100%
2,"COc1ccccc1/C=C/C=N/[C@@H](CCCNC(=N)N)C(=O)O [Example 6, (E)-N^2-[(2E)-3-(2-methoxyphenyl)prop-2-en-1-ylidene]-L-arginine]",70 to 100%
3,"N=C(N)NCCC[C@H](/N=C/C=C/c1ccsc1)C(=O)O [Example 21, (E)-N^2-[(2E)-3-(thiophen-3-yl)prop-2-en-1-ylidene]-L-arginine]",70 to 100%
4,"N=C(N)NCCC[C@H](/N=C/C=C/c1ccccc1OC(=O)c1ccccc1)C(=O)O [Example 19, (E)-N^2-{(2E)-3-[2-(benzoyloxy)phenyl]prop-2-en-1-ylidene}-L-arginine]",0 to 49%
5,"N#Cc1ccc(/C=C/C=N/[C@@H](CCCNC(=N)N)C(=O)O)cc1 [Example 20, (E)-N^2-[(2E)-3-(4-cyanophenyl)prop-2-en-1-ylidene]-L-arginine]",70 to 100%
6,"CCCCCCC(/C=N/[C@@H](CCCNC(=N)N)C(=O)O)=C\c1ccccc1 [Example 13, (E)-N^2-[(2E)-2-benzylideneoctylidene]-L-arginine]",0 to 49%
7,"CCC(/C=N/[C@@H](CCCNC(=N)N)C(=O)O)=C\c1ccccc1 [Example 11, (E)-N^2-[(2E)-2-benzylidenebutylidene]-L-arginine]",70 to 100%
8,"N=C(N)NCCC[C@H](/N=C/C=C/c1c(O)cccc1F)C(=O)O [Example 3, (E)-N^2-[(2E)-3-(6-fluoro-2-hydroxyphenyl)prop-2-en-1-ylidene]-L-arginine]",50 to 69%
9,"CCC(/C=N/[C@@H](CCCNC(=N)N)C(=O)O)=C\c1ccco1 [Example 16, (E)-N^2-{(2E)-2-[(furan-2-yl)methylidene]butylidene}-L-arginine]",0 to 49%
10,"N=C(N)NCCC[C@H](/N=C/C=C/c1ccco1)C(=O)O [Example 14, (E)-N^2-[(2E)-3-(furan-2-yl)prop-2-en-1-ylidene]-L-arginine]",70 to 100%
11,"COc1cc(/C=C/C=N/[C@@H](CCCNC(=N)N)C(=O)O)ccc1O [Example 17, (E)-N^2-[(2E)-3-(4-hydroxy-3-methoxyphenyl)prop-2-en-1-ylidene]-L-arginine]",70 to 100%
12,"CC(=O)Oc1ccc(/C=C/C=N/[C@@H](CCCNC(=N)N)C(=O)O)cc1 [Example 18, (E)-N^2-{(2E)-3-[4-(acetyloxy)phenyl]prop-2-en-1-ylidene}-L-arginine]",70 to 100%
13,"N=C(N)NCCC[C@H](/N=C/C=C/c1ccc(Cl)cc1O)C(=O)O [Example 4, (E)-N^2-[(2E)-3-(4-chloro-2-hydroxyphenyl)prop-2-en-1-ylidene]-L-arginine]",50 to 69%
14,"COc1ccc(/C=C/C=N/[C@@H](CCCNC(=N)N)C(=O)O)cc1 [Example 7, (E)-N^2-[(2E)-3-(4-methoxyphenyl)prop-2-en-1-ylidene]-L-arginine]",70 to 100%
15,"CC(/C=N/[C@@H](CCCNC(=N)N)C(=O)O)=C\c1ccco1 [Example 15, (E)-N^2-[(2E)-3-(furan-2-yl)-2-methylprop-2-en-1-ylidene]-L-arginine]",50 to 69%
16,"N=C(N)NCCC[C@H](/N=C/C=C/c1ccc(F)cc1O)C(=O)O [Example 2, (E)-N^2-[(2E)-3-(4-fluoro-2-hydroxyphenyl)prop-2-en-1-ylidene]-L-arginine]",50 to 69%
17,"N=C(N)NCCC[C@H](/N=C/C=C/c1nc2ccccc2s1)C(=O)O [Example 22, (E)-N^2-[(2E)-3-(1,3-benzothiazol-2-yl)prop-2-en-1-ylidene]-L-arginine]",70 to 100%
18,"COc1cc(/C=C/C=N/[C@@H](CCCNC(=N)N)C(=O)O)ccc1OC(C)=O [Example 8, (E)-N^2-{(2E)-3-[4-(acetyloxy)-3-methoxyphenyl]prop-2-en-1-ylidene}-L-arginine]",0 to 49%
19,"CCCCCC(/C=N/[C@@H](CCCNC(=N)N)C(=O)O)=C\c1ccccc1 [Example 12, (E)-N^2-[(2E)-2-benzylideneheptylidene]-L-arginine]",0 to 49%
20,"N=C(N)NCCC[C@H](/N=C/C=C/c1nccs1)C(=O)O [Example 23, (E)-N^2-[(2E)-3-(1,3-thiazol-2-yl)prop-2-en-1-ylidene]-L-arginine]",50 to 69%
21,"Cc1ccc(/C=C/C=N/[C@@H](CCCNC(=N)N)C(=O)O)cc1 [Example 25, (E)-N^2-[(2E)-3-(4-methylphenyl)prop-2-en-1-ylidene]-L-arginine]",70 to 100%
22,"COc1ccc(O)c(/C=C/C=N/[C@@H](CCCNC(=N)N)C(=O)O)c1 [Example 5, (E)-N^2-[(2E)-3-(2-hydroxy-5-methoxyphenyl)prop-2-en-1-ylidene]-L-arginine]",50 to 69%
23,"CC(/C=N/[C@@H](CCCNC(=N)N)C(=O)O)=C\c1ccccc1 [Example 10, (E)-N^2-[(2E)-2-methyl-3-phenylprop-2-en-1-ylidene]-L-arginine]",70 to 100%
